Experimental findings from article PMC7778606, “Development of the phenylpyrazolo[3,4-d]pyrimidine-based, insulin-like growth factor receptor/Src/AXL-targeting small molecule kinase inhibitor” (Theranostics, 2021) are described below.

In one assay the test system is H1299 cells. Nature of the assay: MTT assay, viability of H1299 cells. It is filed as cell-based. The following applies: Homo sapiens, NCI-H1299, 72 h, three days, read-out: IC50 against the viability. As to the method:
(§1) Cells were seeded into 96-well plates at a density of 1-2 × 10^3 cells/well and incubated for 24 h. Cells were treated with vehicle or various concentrations of test compounds for two (PC9 and PC9/ER cells) or three (other cells) days. Cells were further incubated with MTT solution (final concentration of 500 μg/mL) for 4 h at 37 °C. The formazan products were dissolved in dimethyl sulfoxide (DMSO), and the absorbance was measured at 570 nm. The data are presented as a percentage of the control group.

For another assay, the system named is AXL. Nature of the assay: Western blot, phosphorylation of AXL in H1944 and A549 cells. It is filed as cell-based, human. The following applies: 100 nM monotherapy, 1 day. As for the experimental part:
(§2) Before harvesting, the cells were stimulated with 10% FBS for 20 min. Total cell lysates were prepared with modified radioimmunoprecipitation assay lysis buffer (50 mM Tris-HCl [pH 7.4], 150 mM NaCl, 1 mM EDTA, 0.25% sodium deoxycholate, 1% Triton X-100, 100 mM NaF, 5 mM Na3VO4, 1 mM PMSF, 1 μg/mL aprotinin, 1 μg/mL leupeptin, and 1 μg/mL pepstatin). Equal amounts of protein (20 μg) were subjected to 8% SDS-PAGE and electrically transferred onto polyvinylidene difluoride membranes (Bio-Rad Laboratories, Hercules, CA, USA). Membranes were blocked with blocking buffer (3% BSA in Tris-buffered saline containing 0.1% Tween-20 [TBST]) for 1 h at room temperature. The membranes were incubated with primary antibodies diluted in 3% BSA in TBST (1:1,000) overnight at 4 °C, washed multiple times with TBST, and incubated with secondary antibodies diluted in 3% nonfat dry milk in TBST (1:5,000) for 1 h at room temperature. The membranes were washed multiple times with TBST and visualized using an enhanced chemiluminescence detection kit (Thermo Fisher Scientific). Densitometric analysis was performed using ImageJ software.

A further assay concerns H460 cells. Description: MTT assay, viability of H460 cells. It is filed as cell-based. To be noted: Homo sapiens, NCI-H460, 72 h, three days, read-out: IC50 against the viability. As to the method: as §1
Another assay concerns A549 cells. Nature of the assay: MTT assay, viability of A549 cells. To be noted: Homo sapiens, 72 h; A549, MTT assay, 10 μM; read-out: % cells growth at 10 μM. Format: cell-based. As to the method: as §1
Another assay has as its system IGF-1R. Nature of the assay: Western blot, phosphorylation of IGF-1R in H1944 and A549 cells. It is filed as cell-based, human. To be noted: 2 μM monotherapy, 1 day. As for the experimental part:
as §2

On to `Nc1nc(Nc2ccc3c(c2)CC[C@@H](N2CCCC2)CC3)nn1-c1cc2c(nn1)-c1ccccc1CCC2` [Bemcentinib, bemcentinib], for which the values for the half-inhibitory concentration (IC50) in the assay on H1299 cells and in the assay with H460 cells were 530 nM and 180 nM, respectively. In addition, the “phosphorylation of AXL” value with AXL is reported as “suppressed phosphorylation”.
Regarding `COc1cc(Nc2c(C#N)cnc3cc(OCCCN4CCN(C)CC4)c(OC)cc23)c(Cl)cc1Cl` [Bosutinib, bosutinib, reference compound], in the assay with A549 cells, the activity at 10 µM was 46%.
For `Cc1ccc(-c2n[nH]c3ncnc(N)c23)cc1` [Compound 1a], the activity at 10 µM in the assay on A549 cells turned out to be 98%.
With `Oc1ccc(Nc2nccc(Nc3cnc4ccccc4c3)n2)cc1` [Compound 23a], the activity at 10 µM in the assay on A549 cells is 69%.
For the molecule `Cc1nc(Nc2ncc(C(=O)Nc3c(C)cccc3Cl)s2)cc(N2CCN(CCO)CC2)n1` [Dasatinib, dasatinib], the figures for the IC50 with H1299 cells and in the assay on H460 cells were 20 nM and 540 nM, respectively.
`C[C@]1(O)C[C@@H](c2nc(-c3ccc4ccc(-c5ccccc5)nc4c3)c3c(N)nccn32)C1` [Linsitinib]: the half-maximal inhibitory concentration (IC50) in the assay with H1299 cells came to 12800 nM; in the assay on H460 cells, 3780 nM. Besides, the “phosphorylation of IGF-1R” value with IGF-1R is “suppressed phosphorylation”.
